Patent publication US11806393B2, “Flavivirus peptide sequences, epitopes, and methods and uses thereof” (priority 2017, dated 2023)

Legend:
CD8+ T cells [1] = experiment: ICS, DENV2-immune Ifnar-/- HLA-B*0702 mice challenged with ZIKV FSS13025; format: cell-based, mouse; conditions: day 3 after ZIKV FSS13025 challenge
Description: (§1) Two ZIKV strains, MR766 (Uganda, 1947) and FSS13025 (Cambodia, 2010), were obtained from the World Reference Center for Emerging Viruses and Arboviruses (WRCEVA). The mouse-adapted DENV2 strain S221 is a triple-plaque purified clone derived from DENV2 D2S1038. Both ZIKV and DENV2 were amplified in C6/36 mosquito cells, and viral titers were measured using baby hamster kidney (BHK)-21 cell-based focus forming assay (FFA). For epitope screening, 5-week old mice (female or male) were infected retro-orbitally (R.O.) with either 1×102 FFU of ZIKV FSS13025 or ZIKV MR766, or 2×10^4 FFU of DENV2 S221 in 200 μl 10% FBS/PBS. Seven days after infection, CD8^+ T cells were isolated from splenocytes and used for ELISPOT assay, while the splenocytes were directly used for ICS assay. Additionally, 5-week old mice were inoculated I.P. with 2×10^3 FFU of DENV2 S221 for 4 weeks.
Spleens were harvested from virus-infected, mock-immunized, or peptide-immunized mice. 1×10^6 splenocytes were plated in each well of 96-well U-bottom plates and stimulated with individual peptide (10 μg crude peptide or 1 μg pure peptide per well) for 6 hours. Five hours before the end of incubation, Brefeldin A (GolgiPlug; BD Biosciences) and PE-conjugated anti CD107a mAb (clone 1D4B, eBioscience) were added to the cells. Splenocytes stimulated with PMA-ionomycin were used as the positive control, while cells without any stimulation were the negative control. After incubation, cells were first stained with PERCPCY™ 5.5-conjugated anti-CD3 mAb (Clone 145-2C11, TONBO), PE-CY7™-conjugated anti-CD8 mAb (clone 53-67, BD Biosciences), EFLUOR™ 450-conjugated anti-CD44 mAb (clone IM7, eBioscience), and APC eFluor 780-conjugated anti-CD62L mAb (clone Mel-14, eBioscience). Cells were then fixed and permeabilized using CYTOFIX/CYTOPERM™ solution (BD Biosciences), followed by staining with FITC-conjugated anti-IFNγ mAb (clone XMG 1.2, TONBO) and APC-conjugated anti-TNFα mAb (clone MP6-XT22, eBioscience). Samples were run using an LSR™ II (BD Biosciences) and analyzed using FLOWJO™ software X 10.0.7 (Tree Star, Ashland, Oreg.).
The following results are with respect to FIG. 11 to FIG. 11E, where Ifnar^−/− HLA-B*0702 transgenic mice were inoculated I.P. with 2×10^3 FFU of DENV2 strain S221 for 4 weeks. Naive mice (n=5) and DENV2 strain S221-immune mice (n=5) were challenged R.O. with 1×10^4 FU of ZIKV FSS13025 for three days, and the percentages of peptide-specific IFNγ^+ and/or TNFα^+ CD8^+ T cells were detected by ICS (FIG. 11A and FIG. 11B). […] Data were expressed as mean±SEM. *, P<0.05; **, P<0.01; Two-tailed ann-Whitney test. Black “*” indicates ZIKV-specific response while bold “*” represents ZIKV/DENV cross-reactive response. All positive peptides were grouped according the ZIKV specificity of immune response (FIG. 11E). Numbers in parentheses indicate the number of positive peptides in this group.

CD8+ T cells [2] = experiment: IFNγ ELISPOT, DENV2 S221-infected Ifnar-/- HLA-B*0702 transgenic mice; format: cell-based, mouse; conditions: HLA-B*0702 mice, 7 days after 2×10^4 FFU DENV2 S221
Description: as §1
CD8^+ T cells were isolated from splenocytes using magnetic bead positive selection (Miltenyi Biotec, Germany) 7 days after virus infection. 2×10^5 CD8^+ T cells were stimulated with 1×10^5 LPS-blasts loaded with 10 μg of individual peptide in 96-well flat-bottom plates (IMMOBILON™-P; Millipore, Bedford, Mass.) that were coated with anti-IFNγ mAb (clone AN18; Mabtech, Stockholm, Sweden) in triplicate. Concanavalin A (ConA) was used as positive control. After 20 hours of incubation, biotinylated anti-mouse IFNγ mAb (R4-6A2; Mabtech), followed by ABC peroxidase (Vector Laboratories, Burlingame, Calif., USA) and then 3-amino-9-ethylcarbazole (Sigma-Aldrich, St. Louis, Mo., USA) were added into the wells. […] A peptide inducing a magnitude of >500 SFCs/10^6 CD8^+ T cells was considered as an immunodominant peptide.
The following results are with respect to FIG. 14A and FIG. 14B, where Ifnar^−/− HLA-B*0702 transgenic mice were infected R.O. with 2×10^4 FFU of DENV2 strain S221 for 7 days. CD8^+ T cells isolated from splenocytes were stimulated with each of the 37 ZIKV epitopes identified via IFNγELISPOT to perform (FIG. 14A) IFNγELISPOT and (FIG. 14B) ICS assay. Data represent the average of two independent IFNγELISPOT experiments and two independent ICS experiments (n=7 mice) and are expressed as mean±SEM. Dotted line corresponds to the cutoff value. *, P<0.05.

In the case of KPRWMDARV [FSS/MR-NS3574-582], the “IFNγ and TNFα double-positive epitope-specific CD8+ T cells” value (CD8+ T cells [1]) was “double-positive with expression of both IFNγ and TNFα”, the “percentage of epitope-specific IFNγ-producing CD8+ T cells” value (CD8+ T cells [1]) was 2.61±1.19% and the “SFC/10^6 CD8+ T cells, S221” value (CD8+ T cells [2]) was 350 SFC/10^6 CD8+ T cells.
For RPALLVSFIF [FSS/MR-NS2A75-84], the “IFNγ and TNFα double-positive epitope-specific CD8+ T cells” value (CD8+ T cells [1]) was “double-positive with expression of both IFNγ and TNFα”, the “percentage of epitope-specific IFNγ-producing CD8+ T cells” value (CD8+ T cells [1]) was 0.44±0.24% and the “SFC/10^6 CD8+ T cells, S221” value (CD8+ T cells [2]) was 88 SFC/10^6 CD8+ T cells.
